Test results from patent publication US20090170847A1, “Imidazopyridine Derivatives Inhibiting Protein Kinase Activity, Method for the Preparation Thereof and Pharmaceutical Composition Containing Same” (priority 2006, published 2009).

Biological target: human GSK-3β (Homo sapiens, UniProt P49841)
Assay: GSK-3β enzyme inhibition (32P-ATP, phospho-CREB peptide, filter paper)
Type: biochemical
Conditions: 100 μM ATP, 30° C., 1 hour
Experimental: GSK-3β was prepared by a gene recombination method.
First, primers corresponding to 5′-end and 3′-end of polynucleotide encoding human GSK-3β were designed and synthesized from nucleotide sequence of human GSK-3β (GenBank Reg. No. L33801). Then, the primers were amplified by PCR (polymerase chain reaction) in which a human DNA sequence was employed as a template and treated with restriction enzyme BamH1/XhoI. The resulting gene fragments were inserted into the corresponding identical restriction sites of pGex vector (GE Healthcare Life Science) to prepare an expression vector for transformation of E. coli BL21 (DE3) strain (Invitrogen). The transformed E. coli strain was inoculated to LB medium (1% Bacto tryptone, 0.5% yeast extract, 1% sodium chloride) and cultured until the optical density of the bacterial cells was about 0.5 at 600 nm and 37° C. Then, IPTG (isopropyl-β-D-thiogalactoside) was added thereto to a final concentration to 0.5 mM at 18° C. 16 hours after IPTG addition, the cells were subjected to centrifugation at 10,000×g for 10 mins and cell precipitates were collected. The cell precipitates were suspended in a buffer solution (30 mM tris-HCl (pH 7.5), 100 mM NaCl, 5% glycerol, 2 mM DTT) and the cells were smashed in an ice bath using a Sonic Dismembrator (Fisher, USA). The resulting solution was centrifuged at 16,000 rpm for 30 mins.
The supernatant obtained above was introduced to a pre-equilibrated GST column (Pharmacia, USA) and eluted by 5 mM glutachione. The effuent was subjected to SDS-PAGE and GSK-3β protein was collected. GST protein was cutt using thrombin. The GSK-3β protein thus obtained was diluted with a buffer solution (20 mM HEPES (pH 7.5), 5% glycerol, 2 mM DTT) until the concentration of NaCl reached 50 mM. The diluted solution was introduced to Mono S column (Pharmacia, USA) equilibrated with the above buffer solution and eluted with a aqueous NaCl while changing the concentration from 0 to 1 M NaCl, and GSK-3β protein was collected by a electrophoresis. The purified protein was used in the analysis for the activity for enzyme activity.
The enzyme reaction was conducted in a buffer solution (50 mM of tris-HCl (pH 7.5), 10 mM of MgCl2, 1 mM of EGTA, 1 mM of EDTA and 1 mM of DTT). 100 μM of phosho-CREB peptide (NEB, USA), 100 μM of ATP and 1 μCi of ^32P-ATP were added to the buffer solution as substrates. And then 100 nM of recombinant GSK-3β was added thereto and the mixture was reacted at 30° C. for 1 hour. The reaction was terminated by the addition of 5 μl of 5% phosphoric acid solution to 25 μl of the reaction mixture. The resulting solution was subjected to centrifugation at 15,000 for 10 mins and 20 μl of the supernatant thus obtained was dropped on whatman p81 filter paper. The filter paper was washed in 0.5% phosphoric acid solution for 10 mins. After repeating the washing 3 times, the filter paper was dried and its cpm (counter per mins) was assessed.
The test solution prepared above by dissolving a test compound in DMSO was added to the reaction solution in an amount of less than 5% based on the total reaction solution to analyze the capacity for enzyme inhibitory activity.

Chain of human GSK-3β (P49841 whole entry): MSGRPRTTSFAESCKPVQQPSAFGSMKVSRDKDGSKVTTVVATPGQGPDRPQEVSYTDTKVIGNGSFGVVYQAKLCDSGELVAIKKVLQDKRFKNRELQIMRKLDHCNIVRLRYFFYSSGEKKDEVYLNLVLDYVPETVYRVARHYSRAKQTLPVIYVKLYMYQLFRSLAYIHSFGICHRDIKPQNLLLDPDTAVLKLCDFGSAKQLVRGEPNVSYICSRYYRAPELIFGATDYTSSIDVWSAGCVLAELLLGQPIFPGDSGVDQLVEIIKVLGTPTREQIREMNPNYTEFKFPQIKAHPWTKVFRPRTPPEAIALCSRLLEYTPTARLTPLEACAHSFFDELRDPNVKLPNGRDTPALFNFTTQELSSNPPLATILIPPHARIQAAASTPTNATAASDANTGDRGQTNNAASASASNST

First: Cc1ccncc1NC(=O)c1ccnc2[nH]c(-c3ccc(N4CCCC4)cc3)nc12 [Example 332, 2-(4-pyrrolidin-1-yl-phenyl)-3H-imidazo[4,5-b]pyridine-7-carboxylic acid(4-methyl-pyridin-3-yl)-amide]
Second: CCOc1ccncc1NC(=O)c1ccnc2[nH]c(-c3ccc(N4CCCC4)cc3)nc12 [Example 404, 2-(4-pyrrolidin-1-yl-phenyl)-3H-imidazo[4,5-b]pyridine-7-carboxylic acid(4-ethoxy-pyridin-3-yl)-amide]
The IC50 of the first is 4-fold higher: 12 nM for the first, 3 nM for the second.

Compared with CC(=O)Nc1ccc(CCNC(=O)c2ccnc3[nH]c(-c4ccc(Cl)cc4)nc23)cc1 [Example 44, 2-(4-chloro-phenyl)-3H-imidazo[4,5-b]pyridine-7-carboxylic acid[2-(4-acetylamino-phenyl)-ethyl]-amide], CC(=O)Nc1ccc(CCNC(=O)c2ccnc3[nH]c(-c4ccccc4)nc23)cc1 [Example 1, 2-phenyl-3H-imidazo[4,5-b]-pyridine-7-carboxylic acid [2-(4-acetylamino-phenyl)-ethyl]-amide] is 1.9-fold lower in IC50: 38 nM for the first, 20 nM for the second.

Going from CCSc1ccncc1NC(=O)c1ccnc2[nH]c(-c3ccc(Cl)cc3)nc12 [Example 61, 2-(4-chloro-phenyl)-3H-imidazo[4,5-b]pyridine-7-carboxylic acid(4-ethylsulfanyl-pyridin-3-yl)-amide] to CCOc1cc(C)ncc1NC(=O)c1ccnc2[nH]c(-c3ccc(F)cc3)nc12 [Example 325, 2-(4-fluoro-phenyl)-3H-imidazo[4,5-b]pyridine-7-carboxylic acid(4-ethoxy-6-methyl-pyridin-3-yl)-amide], the IC50 falls from 3 nM to 2 nM (1.5-fold).

O=C(NCCCc1ccncc1)c1ccnc2[nH]c(-c3cccs3)nc12 [Example 109, 2-thiophen-2-yl-3H-imidazo[4,5-b]pyridine-7-carboxylic acid(3-pyridin-4-yl-propyl)-amide] and CN1CCN(c2ccc(-c3nc4c(C(=O)Nc5cccnc5)ccnc4[nH]3)cc2)CC1 [Example 327, 2-[4-(4-methyl-piperazin-1-yl)-phenyl]-3H-imidazo[4,5-b]pyridine-7-carboxylic acid pyridin-3-ylamide] are within 1.5-fold of each other in IC50: 52 nM for the first, 50 nM for the second.

Biological target: T1, Aurora Kinase A (Homo sapiens, UniProt O14965)
T1 construct: purchased Upstate
T1 sequence (O14965 1-403): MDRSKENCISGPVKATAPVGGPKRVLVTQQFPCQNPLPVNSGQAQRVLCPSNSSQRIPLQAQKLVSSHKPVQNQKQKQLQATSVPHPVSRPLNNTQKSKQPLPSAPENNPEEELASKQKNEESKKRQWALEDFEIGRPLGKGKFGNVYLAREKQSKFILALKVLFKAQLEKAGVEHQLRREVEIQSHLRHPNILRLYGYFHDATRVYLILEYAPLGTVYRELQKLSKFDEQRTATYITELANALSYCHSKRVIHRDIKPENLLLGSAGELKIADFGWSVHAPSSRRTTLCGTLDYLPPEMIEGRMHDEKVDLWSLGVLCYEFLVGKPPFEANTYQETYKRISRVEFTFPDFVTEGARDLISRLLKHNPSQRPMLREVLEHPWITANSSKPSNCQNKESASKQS
Assay: Aurora kinase A enzyme inhibition (Kemptide, Kinase glo)
Type: biochemical
Conditions: 1 μM ATP
Experimental: The test solution prepared above by dissolving a test compound in DMSO was added to the reaction solution in an amount of less than 5% based on the total reaction solution to analyze the capacity for enzyme inhibitory activity. The cpm value obtained when the test compounds was present relative to the cpm value in the absence of the test compound was represented by percentage, and IC50 (μM) was determined as the concentration of the test compound required to inhibit the enzyme activity by 50% relatively to the control solution.
A test solution was prepared by dissolving one of the compounds of the Examples in DMSO at a concentration of 12.5 mM. Enzyme reaction was conducted in a buffer solution containing 20 mM of HEPES (pH 7.5), 5 mM MgCl2, 0.5 mM ethylene glycol bis(b-aminoethylether) tetraacetic acid (EGTA), 200 mM of KCl, 1 mM of DTT and 0.05% triton X-100. 100 μM of Kemptide peptide (Upstate) and 1 μM of ATP were added to the buffer solution as substrates. Recombinant aurora kinase (Upstate) was added the resulting mixture at a concentration of 10 nM and reaction was carried out at 30° C. for 1 hour. 25 μl of the resulting solution was mixed with 25 μl of Kinase glo (promega), thereby inducing the second reaction by luciferase. The amount of remained ATP was measured by fusion a-FP (Packard, USA). Inhibitory capacities of the test compounds for the enzyme activity were assessed according to the same method as in GSK-3β analysis, and IC50 value was calculated.

Going from CCOc1cc(C)ncc1NC(=O)c1ccnc2[nH]c(-c3ccc(N4CCN(C)CC4)cc3)nc12 [Example 423, 2-[4-(4-methyl-piperazin-1-yl)-phenyl]-3H-imidazo[4,5-b]pyridine-7-carboxylic acid(4-ethoxy-6-methyl-pyridin-3-yl)-amide] to CCSc1ccncc1NC(=O)c1ccnc2[nH]c(-c3ccc(N4CCN(C)CC4)cc3)nc12 [Example 418, 2-[4-(4-methyl-piperazin-1-yl)-phenyl]-3H-imidazo[4,5-b]pyridine-7-carboxylic acid(4-ethylsulfanyl-pyridin-3-yl)-amide], the IC50 rises from 105 nM to 200 nM (1.9-fold).

Compared with O=C(NC1C2CC3CC(C2)CC1C3)c1ccnc2[nH]c(-c3ccc(F)cc3)nc12 (centres unmarked) [Example 264, 2-(4-fluoro-phenyl)-3H-imidazo[4,5-b]pyridine-7-carboxylic acid adamantan-2-ylamide], CN1CCN(c2ccc(-c3nc4c(C(=O)NC5CC6CCC5C6)ccnc4[nH]3)cc2)CC1 (centres unmarked) [Example 371, 2-[4-(4-methyl-piperazin-1-yl)-phenyl]-3H-imidazo[4,5-b]pyridine-7-carboxylic acid bicyclo[2.2.1]heptin-2-ylamide] is 1.6-fold higher in IC50: 70 nM for the first, 113 nM for the second.

Compared with CCC(C)(C)NC(=O)c1ccnc2[nH]c(-c3ccc(NCCN(C)C)cc3)nc12 [Example 381, 2-[4-(2-dimethylamino-ethylamino)-phenyl]-3H-imidazo[4,5-b]pyridine-7-carboxylic acid(1,1-dimethyl-propyl)-amide], CN(C)CCOc1ccncc1NC(=O)c1ccnc2[nH]c(-c3ccc(F)cc3)nc12 [Example 313, 2-(4-fluoro-phenyl)-3H-imidazo[4,5-b]pyridine-7-carboxylic acid[4-(2-dimethylamino-ethoxy)-pyridin-3-yl]-amide] is 33-fold higher in IC50: 33 nM for the first, 1100 nM for the second. The first is the more potent here.

Compared with CCN(CC)C1CCN(c2ccc(-c3nc4c(C(=O)Nc5ccc(C)nc5)ccnc4[nH]3)cc2)C1 (centres unmarked) [Example 409, 2-[4-(3-diethylamino-pyrrolidin-1-yl)-phenyl]-3H-imidazo[4,5-b]pyridine-7-carboxylic acid(6-methyl-pyridin-3-yl)-amide], CCOc1ccncc1NC(=O)c1ccnc2[nH]c(-c3ccc(OC)cc3)nc12 [Example 425, 2-(4-methoxy-phenyl)-3H-imidazo[4,5-b]pyridine-7-carboxylic acid(4-ethoxy-pyridin-3-yl)-amide] is higher in IC50: 250 nM for the first, > 6000 nM for the second.

Compound CC1(C)C2CC[C@@]1(C)[C@@H](NC(=O)c1ccnc3[nH]c(-c4ccc(NCCN5CCOCC5)cc4)nc13)C2 [Example 368, 2-[4-(2-morpholin-4-yl-ethylamino)-phenyl]-3H-imidazo[4,5-b]pyridine-7-carboxylic acid(1,7,7-trimethyl-bicyclo[2.2.1]heptin-2-yl)-amide] has an IC50 of 40 nM.
